Results as given in ChEMBL document CHEMBL2424558, “Synthesis and biological evaluation of novel quinazoline derivatives obtained by Suzuki CC coupling” (2013).
Converted amounts (≈) assume the structure as drawn.

Columns and labels:
Format in all cases: functional
Klebsiella pneumoniae = experiment: Antibacterial activity against Klebsiella pneumoniae MTCC 109
Pseudomonas aeruginosa = experiment: Antibacterial activity against Pseudomonas aeruginosa MTCC 741
Bacillus cereus = experiment: Antibacterial activity against Bacillus cereus MTCC 430
[1] = test system: Mycobacterium tuberculosis; experiment: Antimycobacterial activity against Mycobacterium tuberculosis H37Rv; details: for MIC: Mycobacterium tuberculosis, H37Rv
Staphylococcus aureus = experiment: Antibacterial activity against Staphylococcus aureus MTCC 96
Aspergillus niger = experiment: Antifungal activity against Aspergillus niger MTCC 282; details: for MIC: Aspergillus niger, MTCC 282
Escherichia coli = experiment: Antibacterial activity against Escherichia coli MTCC 739
Candida albicans = experiment: Antifungal activity against Candida albicans MTCC 183; details: for MIC: Candida albicans, MTCC 183
[2] = Klebsiella pneumoniae, MTCC 109
[3] = Pseudomonas aeruginosa, MTCC 741

| Molecule | inhibition zone (IZ) (Klebsiella pneumoniae) [mm] | MIC (Klebsiella pneumoniae; [2]) [µg/mL] | inhibition zone (IZ) (Pseudomonas aeruginosa) [mm] | MIC (Pseudomonas aeruginosa; [3]) [µg/mL] | inhibition zone (IZ) (Bacillus cereus) [mm] | MIC (Bacillus cereus; Bacillus cereus, MTCC 430) [µg/mL] | inhibition (INH) [1] [%] | MIC [1] [µg/mL] | inhibition zone (IZ) (Staphylococcus aureus) [mm] | MIC (Staphylococcus aureus; Staphylococcus aureus, MTCC 96) [µg/mL] | inhibition zone (IZ) (Aspergillus niger) [mm] | MIC (Aspergillus niger) [µg/mL] | inhibition zone (IZ) (Escherichia coli) [mm] | MIC (Escherichia coli; Escherichia coli, MTCC 739) [µg/mL] | inhibition zone (IZ) (Candida albicans) [mm] | MIC (Candida albicans) [µg/mL] | further results |
| --- | --- | --- | --- | --- | --- | --- | --- | --- | --- | --- | --- | --- | --- | --- | --- | --- | --- |
| Cc1cccc(Oc2nc(-c3ccc(NC(=O)Nc4ccc(F)cc4)cc3)nc3ccccc23)c1 | 21 | 200 (≈ 431 µM) | 23 | 100 (≈ 215 µM) | 21 | 100 (≈ 215 µM) | 97 | 62.5 (≈ 135 µM) | 22 | 200 (≈ 431 µM) | 23 | 25 (≈ 53.8 µM) | 23 | 62.5 (≈ 135 µM) | 26 | 12.5 (≈ 26.9 µM) | – |
| Cc1cccc(Oc2nc(-c3ccc(NC(=S)Nc4ccc(Cl)cc4)cc3)nc3ccccc23)c1 | 27 | 25 (≈ 50.3 µM) | 26 | 12.5 (≈ 25.1 µM) | 27 | 50 (≈ 101 µM) | 98 | 25 (≈ 50.3 µM) | 24 | 12.5 (≈ 25.1 µM) | 24 | 12.5 (≈ 25.1 µM) | 27 | 25 (≈ 50.3 µM) | 28 | 25 (≈ 50.3 µM) | – |
| CO[C@H]1/C=C/O[C@@]2(C)Oc3c(C)c(O)c4c(O)c(c(/C=N/N5CCN(C)CC5)c(O)c4c3C2=O)NC(=O)/C(C)=C\C=C\[C@H](C)[C@H](O)[C@@H](C)[C@@H](O)[C@@H](C)[C@H](OC(C)=O)[C@@H]1C [RIFAMPIN] | – | – | – | – | – | – | 99 | 0.25 (≈ 0.304 µM) | – | – | – | – | – | – | – | – | – |
| NC(=O)c1cnccn1 [PYRAZINAMIDE] | – | – | – | – | – | – | 99 | 6.25 (≈ 50.8 µM) | – | – | – | – | – | – | – | – | – |
| NNC(=O)c1ccncc1 [ISONIAZID] | – | – | – | – | – | – | – | 0.2 (≈ 1.46 µM) | – | – | – | – | – | – | – | – | – |
| COc1ccc(NC(=S)Nc2ccc(-c3nc(Oc4cccc(C)c4)c4ccccc4n3)cc2)cc1 | 24 | 50 (≈ 102 µM) | 27 | 25 (≈ 50.8 µM) | 24 | 50 (≈ 102 µM) | 97 | 100 (≈ 203 µM) | 25 | 12.5 (≈ 25.4 µM) | 21 | 50 (≈ 102 µM) | 27 | 25 (≈ 50.8 µM) | 28 | 12.5 (≈ 25.4 µM) | – |
| CC[C@@H](CO)NCCN[C@@H](CC)CO [ETHAMBUTOL] | – | – | – | – | – | – | 99 | 3.12 (≈ 15.3 µM) | – | – | – | – | – | – | – | – | – |
| Cc1cccc(Oc2nc(-c3ccc(NC(=O)Nc4ccccc4)cc3)nc3ccccc23)c1 | 19 | 100 (≈ 224 µM) | 21 | 62.5 (≈ 140 µM) | 20 | 250 (≈ 560 µM) | 95 | 250 (≈ 560 µM) | 22 | 200 (≈ 448 µM) | 22 | 200 (≈ 448 µM) | 23 | 100 (≈ 224 µM) | 23 | 250 (≈ 560 µM) | – |
| Cc1cccc(Oc2nc(-c3ccc(NC(=S)Nc4ccccc4)cc3)nc3ccccc23)c1 | 22 | 200 (≈ 432 µM) | 25 | 50 (≈ 108 µM) | 24 | 50 (≈ 108 µM) | 95 | 100 (≈ 216 µM) | 27 | 200 (≈ 432 µM) | 23 | 50 (≈ 108 µM) | 26 | 250 (≈ 540 µM) | 25 | 200 (≈ 432 µM) | – |
| GENTAMICIN | 30 | – | – | – | 30 | – | – | – | – | – | – | – | – | – | – | – | MIC (Klebsiella pneumoniae): 25 µg/mL; MIC (Pseudomonas aeruginosa): 12.5 µg/mL; MIC (Bacillus cereus): 6.25 µg/mL; MIC (Staphylococcus aureus): 6.25 µg/mL; MIC (Escherichia coli): 12.5 µg/mL |
| Cc1cccc(Oc2nc(-c3ccc(NC(=S)Nc4ccc(F)cc4)cc3)nc3ccccc23)c1 | 24 | 100 (≈ 208 µM) | 25 | 50 (≈ 104 µM) | 27 | 200 (≈ 416 µM) | 96 | 50 (≈ 104 µM) | 24 | 25 (≈ 52 µM) | 22 | 50 (≈ 104 µM) | 27 | 25 (≈ 52 µM) | 25 | 6.25 (≈ 13 µM) | – |
| CC1(C)S[C@@H]2[C@H](NC(=O)[C@H](N)c3ccccc3)C(=O)N2[C@H]1C(=O)O [AMPICILLIN] | 33 | 25 (≈ 71.5 µM) | 28 | 25 (≈ 71.5 µM) | 28 | 12.5 (≈ 35.8 µM) | – | – | 30 | 12.5 (≈ 35.8 µM) | – | – | 31 | 6.25 (≈ 17.9 µM) | – | – | – |
| Cc1ccc(NC(=O)Nc2ccc(-c3nc(Oc4cccc(C)c4)c4ccccc4n3)cc2)cc1 | 24 | 50 (≈ 109 µM) | 27 | 25 (≈ 54.3 µM) | 24 | 250 (≈ 543 µM) | 95 | 200 (≈ 434 µM) | 23 | 100 (≈ 217 µM) | 21 | 200 (≈ 434 µM) | 24 | 25 (≈ 54.3 µM) | 24 | 50 (≈ 109 µM) | – |
| Cc1cccc(Oc2nc(-c3ccc(NC(=O)Nc4ccc(Cl)cc4)cc3)nc3ccccc23)c1 | 23 | 62.5 (≈ 130 µM) | 24 | 50 (≈ 104 µM) | 24 | 100 (≈ 208 µM) | 98 | 100 (≈ 208 µM) | 25 | 50 (≈ 104 µM) | 26 | 200 (≈ 416 µM) | 27 | 62.5 (≈ 130 µM) | 21 | 100 (≈ 208 µM) | – |
| COc1ccc(NC(=O)Nc2ccc(-c3nc(Oc4cccc(C)c4)c4ccccc4n3)cc2)cc1 | 26 | 200 (≈ 420 µM) | 26 | 25 (≈ 52.5 µM) | 22 | 50 (≈ 105 µM) | 94 | 62.5 (≈ 131 µM) | 23 | 25 (≈ 52.5 µM) | 23 | 50 (≈ 105 µM) | 24 | 200 (≈ 420 µM) | 25 | 25 (≈ 52.5 µM) | – |
| CCOc1ccc(NC(=O)Nc2ccc(-c3nc(Oc4cccc(C)c4)c4ccccc4n3)cc2)cc1 | 25 | 25 (≈ 51 µM) | 26 | 50 (≈ 102 µM) | 24 | 25 (≈ 51 µM) | 96 | 100 (≈ 204 µM) | 22 | 50 (≈ 102 µM) | 23 | 50 (≈ 102 µM) | 24 | 200 (≈ 408 µM) | 27 | 50 (≈ 102 µM) | – |
| Cc1cccc(Oc2nc(-c3ccc(NC(=S)Nc4ccc(Br)cc4)cc3)nc3ccccc23)c1 | 27 | 12.5 (≈ 23.1 µM) | 25 | 25 (≈ 46.2 µM) | 26 | 12.5 (≈ 23.1 µM) | 99 | 12.5 (≈ 23.1 µM) | 29 | 6.25 (≈ 11.5 µM) | 23 | 25 (≈ 46.2 µM) | 25 | 50 (≈ 92.3 µM) | 27 | 12.5 (≈ 23.1 µM) | – |
| Cc1cccc(Oc2nc(-c3ccc(NC(=O)Nc4ccc(Br)cc4)cc3)nc3ccccc23)c1 | 24 | 50 (≈ 95.2 µM) | 25 | 25 (≈ 47.6 µM) | 28 | 12.5 (≈ 23.8 µM) | 99 | 25 (≈ 47.6 µM) | 24 | 12.5 (≈ 23.8 µM) | 22 | 62.5 (≈ 119 µM) | 27 | 62.5 (≈ 119 µM) | 24 | 50 (≈ 95.2 µM) | – |
| CCOc1ccc(NC(=S)Nc2ccc(-c3nc(Oc4cccc(C)c4)c4ccccc4n3)cc2)cc1 | 23 | 25 (≈ 49.3 µM) | 26 | 12.5 (≈ 24.7 µM) | 19 | 100 (≈ 197 µM) | 95 | 200 (≈ 395 µM) | 22 | 12.5 (≈ 24.7 µM) | 26 | 25 (≈ 49.3 µM) | 24 | 62.5 (≈ 123 µM) | 22 | 50 (≈ 98.7 µM) | – |
| OC(Cn1cncn1)(Cn1cncn1)c1ccc(F)cc1F [FLUCONAZOLE] | – | – | – | – | – | – | – | – | – | – | 30 | 6.25 (≈ 20.4 µM) | – | – | 31 | 12.5 (≈ 40.8 µM) | – |
| Cc1ccc(NC(=S)Nc2ccc(-c3nc(Oc4cccc(C)c4)c4ccccc4n3)cc2)cc1 | 21 | 50 (≈ 105 µM) | 23 | 50 (≈ 105 µM) | 21 | 200 (≈ 420 µM) | 94 | 100 (≈ 210 µM) | 22 | 50 (≈ 105 µM) | 18 | 200 (≈ 420 µM) | 23 | 50 (≈ 105 µM) | 23 | 50 (≈ 105 µM) | – |
